The target in assay [1] is T1, Ba/F3 KIF5B-RET (Homo sapiens, UniProt P07949, cells depend on it, form not given).
T1 construct: IC50 (nM); other: Experiment 1; other: Experiment 2; fused on or other part: P33176 (Kinesin-1 heavy chain)
Put plainly: Compound I anti-cell proliferation comparison (FIG. 5A, 5B). The class given is cell-based. As to conditions: for GI50: read-out: IC50 (the source's name). An excerpt: The KIF5B-RET gene was synthesized at GenScript and cloned into pCDH-CMV-MCS-EF1-Puro plasmid (System Biosciences, Inc). KIF5B-RET point mutation V804M and G810C were generated at GenScript by PCR and confirmed by sequencing. Ba/F3-KIF5B-RET wild type and mutant were generated by transducing Ba/F3 cells with lentivirus containing KIF5B-RET wide type or mutant. Stable cell lines were selected by puromycin treatment, followed by IL-3 withdrawal. Briefly, 5×10^6 Ba/F3 cells were transduced with lentivirus supernatant in the presence of 8 μg/mL protamine sulfate. The transduced cells were subsequently selected with 1 μg/mL puromycin in the presence of IL3-containing medium RPMI1640, plus 10% FBS. After 10-12 days of selection, the surviving cells were further selected for […] independent growth.
(§1) Two thousand cells per well were seeded in 384 well white plate for 24 hrs, and then treated with compounds for 72 hours (37° C., 5% CO2). Cell proliferation was measured using CellTiter-Glo luciferase-based ATP detection assay (Promega) following the manufactures's protocol. IC50 determinations were performed using GraphPad Prism software (GraphPad, Inc., San Diego, Calif.).

Assay [2] deals with T2, Ba/F3 EML4-ALK (Homo sapiens, UniProt Q9UM73).
T2 construct: fused on or other part: Q9HC35 (Echinoderm microtubule-associated protein-like 4)
T2 sequence (Q9UM73 whole entry, change not shown, the tested form may be a part): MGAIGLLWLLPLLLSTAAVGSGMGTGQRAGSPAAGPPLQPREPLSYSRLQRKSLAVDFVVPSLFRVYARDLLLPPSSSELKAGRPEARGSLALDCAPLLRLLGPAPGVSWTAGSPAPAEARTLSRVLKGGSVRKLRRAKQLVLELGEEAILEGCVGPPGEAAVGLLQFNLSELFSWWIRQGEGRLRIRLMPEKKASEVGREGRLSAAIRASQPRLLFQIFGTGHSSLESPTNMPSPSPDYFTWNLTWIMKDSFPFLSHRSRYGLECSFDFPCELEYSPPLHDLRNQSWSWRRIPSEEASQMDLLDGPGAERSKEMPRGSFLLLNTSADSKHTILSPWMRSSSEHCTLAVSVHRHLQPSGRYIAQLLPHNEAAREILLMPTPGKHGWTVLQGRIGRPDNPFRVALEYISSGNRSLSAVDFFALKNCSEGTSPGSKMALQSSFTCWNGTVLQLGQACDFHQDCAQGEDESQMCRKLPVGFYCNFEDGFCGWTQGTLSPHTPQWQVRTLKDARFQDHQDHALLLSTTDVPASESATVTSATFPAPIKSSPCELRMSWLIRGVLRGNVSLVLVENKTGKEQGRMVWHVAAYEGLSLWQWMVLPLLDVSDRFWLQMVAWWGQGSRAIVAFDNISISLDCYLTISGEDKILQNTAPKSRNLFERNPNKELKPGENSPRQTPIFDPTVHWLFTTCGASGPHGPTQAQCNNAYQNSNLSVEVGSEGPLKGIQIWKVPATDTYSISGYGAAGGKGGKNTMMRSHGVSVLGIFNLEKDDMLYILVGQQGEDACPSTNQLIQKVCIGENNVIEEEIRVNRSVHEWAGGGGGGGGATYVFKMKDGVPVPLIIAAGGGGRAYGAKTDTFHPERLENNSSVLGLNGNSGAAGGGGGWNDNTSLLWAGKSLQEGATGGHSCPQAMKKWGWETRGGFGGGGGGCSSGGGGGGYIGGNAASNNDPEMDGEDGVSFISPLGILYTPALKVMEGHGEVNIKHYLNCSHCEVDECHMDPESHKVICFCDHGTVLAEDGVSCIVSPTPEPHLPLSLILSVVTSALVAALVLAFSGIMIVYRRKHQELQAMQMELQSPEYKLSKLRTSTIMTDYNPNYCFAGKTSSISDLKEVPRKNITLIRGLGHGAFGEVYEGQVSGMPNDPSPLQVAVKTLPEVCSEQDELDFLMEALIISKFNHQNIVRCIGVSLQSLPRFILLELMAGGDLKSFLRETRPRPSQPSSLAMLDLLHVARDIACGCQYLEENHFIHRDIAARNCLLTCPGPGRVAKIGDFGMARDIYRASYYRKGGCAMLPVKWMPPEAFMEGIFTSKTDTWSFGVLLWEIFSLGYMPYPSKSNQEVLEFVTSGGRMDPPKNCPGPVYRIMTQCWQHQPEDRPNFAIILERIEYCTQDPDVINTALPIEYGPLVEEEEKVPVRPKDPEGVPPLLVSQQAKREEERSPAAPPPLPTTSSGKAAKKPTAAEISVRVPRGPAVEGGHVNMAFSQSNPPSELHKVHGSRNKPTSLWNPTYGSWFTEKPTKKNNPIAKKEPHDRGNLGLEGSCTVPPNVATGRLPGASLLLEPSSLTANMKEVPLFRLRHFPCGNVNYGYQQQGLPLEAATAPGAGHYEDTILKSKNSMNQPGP
Nature of the assay: Cell proliferation assay (CellTiter-Glo). Format: cell-based. The note with it: anti-cell proliferation, 72 hours. The protocol:
The EML4-ALK gene (variant 1) was synthesized at GenScript and cloned into pCDH-CMV-MCS-EF1-Puro plasmid (System Biosciences, Inc). Ba/F3-EML4-ALK wild type were generated by transducing Ba/F3 cells with lentivirus containing EML4-ALK wide type. Stable cell lines were selected by puromycin treatment, followed by IL-3 withdrawal. Briefly, 5×10^6 Ba/F3 cells were transduced with lentivirus supernatant in the presence of 8 μg/mL protamine sulfate. The transduced cells were subsequently selected with 1 μg/mL puromycin in the presence of IL3-containing medium RPMI1640, plus 10% FBS. After 10-12 days of selection, the surviving cells were further selected for IL3 independent growth.
as §1

For assay [3], the target named is T3, Ba/F3 KIF5B-RET G810C (Homo sapiens, UniProt P07949, G810C).
T3 construct: KIF5B fragment (fusion partner); expressed in transfected cells; host or cells: Ba/F3 cells, lentiviral transduction (pCDH-CMV-MCS-EF1-Puro); the other entry of the earlier key: KIF5B (P33176, Kinesin-1 heavy chain)
T3 sequence (P07949 713-1063 G810C limits assumed): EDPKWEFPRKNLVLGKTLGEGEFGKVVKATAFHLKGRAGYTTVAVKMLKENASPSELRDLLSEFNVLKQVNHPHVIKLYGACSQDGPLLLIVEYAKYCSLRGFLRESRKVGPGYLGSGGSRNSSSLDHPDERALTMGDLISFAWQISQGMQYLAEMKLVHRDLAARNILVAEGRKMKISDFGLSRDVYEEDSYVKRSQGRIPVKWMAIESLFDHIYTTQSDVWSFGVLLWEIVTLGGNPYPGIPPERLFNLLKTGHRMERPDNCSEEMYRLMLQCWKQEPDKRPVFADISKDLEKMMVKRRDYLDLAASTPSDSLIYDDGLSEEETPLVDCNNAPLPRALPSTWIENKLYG
Nature of the assay: RET-G810C autophosphorylation (Y905) by immunoblotting in Ba/F3 engineered cells. Format: cell-based. The note with it: 4 hours incubation, read-out: IC50, RET-G810C phosphorylation at residue Y905.

The test system of assay [4] is KM12 cell (TPM3-TRKA). Put plainly: Cell proliferation assay (CellTiter-Glo). The note with it: Homo sapiens, anti-cell proliferation, 72 hours. Format: cell-based. The protocol:
(§2) Human medulla thyroid carcinoma cell line TT (containing RET M918T mutation) and acute myelogenous cell line KG-1 were purchased from ATCC. Human colon cancer cell line KM12 (containing TPM3-TRKA) was obtained from NCI. Two thousand cells per well were seeded in 384 well white plate for 24 hrs, and then treated with compounds for 72 hours (37° C., 5% CO2). Cell proliferation was measured using CellTiter-Glo luciferase-based ATP detection assay (Promega) following the manufactures's protocol. IC50 determinations were performed using GraphPad Prism software (GraphPad, Inc., San Diego, Calif.).
Background: ATP-based viability assays read luminescence as a measure of living cells.

The subject of assay [5] is TT cell (RET M918T). Put plainly: Cell proliferation assay (CellTiter-Glo). Format: cell-based. As to conditions: Homo sapiens, anti-cell proliferation, 72 hours. The method, then: as §2
Assay [6] has as its system KG-1. Put plainly: Cell proliferation assay (CellTiter-Glo). Format: cell-based. As to conditions: Homo sapiens, anti-cell proliferation, 72 hours. The method, then:
as §2

Assay [7] concerns the target T4, RET (S891A) (Homo sapiens, UniProt P07949, S891A).
T4 construct: purchased Reaction Biology Corporation (contract assay)
Nature of the assay: Biochemical kinase assay. The note with it: 10 μM ATP. The method, then:
(§3) The biochemical kinase assay was performed at Reaction Biology Corporation (www.reactionbiology.com, Malvern, Pa.) following the procedures described in the reference (Anastassiadis T, et al Nat Biotechnol. 2011, 29, 1039). Specific kinase/substrate pairs along with required cofactors were prepared in reaction buffer; 20 mM Hepes pH 7.5, 10 mM MgCl2, 1 mM EGTA, 0.02% Brij35, 0.02 mg/ml BSA, 0.1 mM Na3VO4, 2 mM DTT, 1% DMSO. Compounds were delivered into the reaction, followed ˜20 minutes later by addition of a mixture of ATP (Sigma, St. Louis Mo.) and ^33P ATP (Perkin Elmer, Waltham Mass.) to a final concentration of 10 μM. Reactions were carried out at room temperature for 120 min, followed by spotting of the reactions onto P81 ion exchange filter paper (Whatman Inc., Piscataway, N.J.). Unbound phosphate was removed by extensive washing of filters in 0.75% phosphoric acid. […] IC50 values and curve fits were obtained using Prism (GraphPad Software).

Assay [8] deals with T5, RET (S904F) (Homo sapiens, UniProt P07949, S904F).
T5 construct: purchased Reaction Biology Corporation (contract assay)
T5 sequence (P07949 29-1114 S904F): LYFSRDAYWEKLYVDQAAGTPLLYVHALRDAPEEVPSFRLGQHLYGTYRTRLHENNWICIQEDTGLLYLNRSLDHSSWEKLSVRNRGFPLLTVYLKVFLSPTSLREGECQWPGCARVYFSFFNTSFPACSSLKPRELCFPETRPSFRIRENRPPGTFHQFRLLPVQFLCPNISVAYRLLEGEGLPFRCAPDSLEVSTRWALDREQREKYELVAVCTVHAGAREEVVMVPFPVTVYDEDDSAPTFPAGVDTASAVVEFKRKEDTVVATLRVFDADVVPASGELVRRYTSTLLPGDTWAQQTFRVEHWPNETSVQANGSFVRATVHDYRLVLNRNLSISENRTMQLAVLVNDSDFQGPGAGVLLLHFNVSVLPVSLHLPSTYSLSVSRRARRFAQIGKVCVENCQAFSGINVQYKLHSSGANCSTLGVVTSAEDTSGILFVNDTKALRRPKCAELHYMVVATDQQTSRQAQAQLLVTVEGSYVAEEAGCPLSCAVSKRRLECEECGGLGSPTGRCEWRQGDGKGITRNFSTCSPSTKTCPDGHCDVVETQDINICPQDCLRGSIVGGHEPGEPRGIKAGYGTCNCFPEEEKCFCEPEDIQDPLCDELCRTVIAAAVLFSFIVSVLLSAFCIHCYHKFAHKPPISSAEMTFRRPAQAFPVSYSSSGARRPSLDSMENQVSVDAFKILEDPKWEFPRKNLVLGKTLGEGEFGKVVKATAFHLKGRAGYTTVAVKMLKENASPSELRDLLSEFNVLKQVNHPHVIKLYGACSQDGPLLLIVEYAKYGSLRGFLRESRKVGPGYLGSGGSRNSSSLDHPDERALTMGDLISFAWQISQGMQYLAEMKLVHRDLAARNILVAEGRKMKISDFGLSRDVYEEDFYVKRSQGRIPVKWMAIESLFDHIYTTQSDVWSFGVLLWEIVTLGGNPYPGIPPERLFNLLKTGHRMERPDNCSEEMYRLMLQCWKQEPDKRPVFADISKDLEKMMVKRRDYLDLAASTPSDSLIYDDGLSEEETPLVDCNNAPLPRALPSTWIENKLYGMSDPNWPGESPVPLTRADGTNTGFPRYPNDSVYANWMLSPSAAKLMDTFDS
Put plainly: Biochemical kinase assay. As to conditions: 10 μM ATP. The method, then: as §3

The target in assay [9] is T6, RET (V804M) (Homo sapiens, UniProt P07949, V804M).
T6 construct: purchased Reaction Biology Corporation (contract assay)
T6 sequence (P07949 29-1114 V804M): as the sequence (P07949 29-1114 S904F) above, with V776M, F876S counted along it
Nature of the assay: Biochemical kinase assay. As to conditions: 10 μM ATP. The method, then: as §3

Assay [10] has as its target T7, RET (R749T) (Homo sapiens, UniProt P07949, R749T).
T7 construct: purchased Reaction Biology Corporation (contract assay)
Nature of the assay: Biochemical kinase assay. As to conditions: 10 μM ATP. The protocol:
as §3

The target in assay [11] is T8, RET (V804E) (Homo sapiens, UniProt P07949, V804E).
T8 construct: purchased Reaction Biology Corporation (contract assay)
T8 sequence (P07949 29-1114 V804E): as the sequence (P07949 29-1114 S904F) above, with V776E, F876S counted along it
Put plainly: Biochemical kinase assay. The note with it: 10 μM ATP. The protocol: as §3

Assay [12] addresses T9, RET (R813Q) (Homo sapiens, UniProt P07949, R813Q).
T9 construct: purchased Reaction Biology Corporation (contract assay)
Put plainly: Biochemical kinase assay. The note with it: 10 μM ATP. The method, then:
as §3

Assay [13] concerns the target T10, RET (E762Q) (Homo sapiens, UniProt P07949, E762Q).
T10 construct: purchased Reaction Biology Corporation (contract assay)
Put plainly: Biochemical kinase assay. The note with it: 10 μM ATP. The protocol:
as §3

Assay [14] addresses T11, RET (Y806H) (Homo sapiens, UniProt P07949, Y806H).
T11 construct: purchased Reaction Biology Corporation (contract assay)
Put plainly: Biochemical kinase assay. The note with it: 10 μM ATP. The protocol: as §3

The IC75 is the point of the concentration-response curve where the effect stands at 75%. In general, IC90 refers to the point of the concentration-response curve where the effect stands at 90%. A low value points to an effect from little substance. As a reminder, the IC50 is the concentration needed to halve the response being measured.

Read-outs that look alike come from different tables or passages of the source.

T1 sequence (P07949 whole entry G810C, form open, the tested form may be a part): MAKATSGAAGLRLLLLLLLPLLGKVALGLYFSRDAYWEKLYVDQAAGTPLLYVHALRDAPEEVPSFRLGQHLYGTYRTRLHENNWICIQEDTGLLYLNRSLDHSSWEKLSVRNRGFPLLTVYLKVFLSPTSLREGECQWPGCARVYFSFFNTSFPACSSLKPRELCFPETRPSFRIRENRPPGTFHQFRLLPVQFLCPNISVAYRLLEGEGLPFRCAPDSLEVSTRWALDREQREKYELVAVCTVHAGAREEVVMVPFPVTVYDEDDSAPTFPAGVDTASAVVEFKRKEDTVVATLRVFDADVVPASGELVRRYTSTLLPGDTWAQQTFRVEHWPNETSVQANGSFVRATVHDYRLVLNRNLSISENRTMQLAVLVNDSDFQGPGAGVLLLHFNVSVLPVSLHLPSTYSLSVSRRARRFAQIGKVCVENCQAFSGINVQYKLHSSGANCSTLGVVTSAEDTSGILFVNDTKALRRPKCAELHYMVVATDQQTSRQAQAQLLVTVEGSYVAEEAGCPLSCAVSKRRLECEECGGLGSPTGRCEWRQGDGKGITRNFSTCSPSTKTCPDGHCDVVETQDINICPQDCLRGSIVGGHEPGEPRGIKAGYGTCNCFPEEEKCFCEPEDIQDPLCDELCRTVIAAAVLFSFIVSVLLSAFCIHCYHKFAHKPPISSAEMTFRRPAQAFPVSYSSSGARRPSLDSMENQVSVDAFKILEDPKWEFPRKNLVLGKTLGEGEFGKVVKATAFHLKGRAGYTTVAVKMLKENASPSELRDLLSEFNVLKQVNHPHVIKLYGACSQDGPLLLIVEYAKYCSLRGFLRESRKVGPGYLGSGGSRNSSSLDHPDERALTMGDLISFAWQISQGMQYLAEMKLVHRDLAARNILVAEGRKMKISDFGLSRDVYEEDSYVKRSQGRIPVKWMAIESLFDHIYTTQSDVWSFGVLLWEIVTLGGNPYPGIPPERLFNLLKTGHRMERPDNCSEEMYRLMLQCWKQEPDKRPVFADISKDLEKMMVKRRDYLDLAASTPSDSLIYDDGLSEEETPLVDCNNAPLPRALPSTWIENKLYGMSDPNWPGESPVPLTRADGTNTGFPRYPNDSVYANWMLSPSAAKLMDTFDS
T9 sequence (P07949 29-1114 R813Q): as the sequence (P07949 29-1114 S904F) above, with R785Q, F876S counted along it
T10 sequence (P07949 29-1114 E762Q): as the sequence (P07949 29-1114 S904F) above, with E734Q, F876S counted along it
T4 sequence (P07949 29-1114 S891A): as the sequence (P07949 29-1114 S904F) above, with S863A, F876S counted along it
T11 sequence (P07949 29-1114 Y806H): as the sequence (P07949 29-1114 S904F) above, with Y778H, F876S counted along it
T7 sequence (P07949 29-1114 R749T): as the sequence (P07949 29-1114 S904F) above, with R721T, F876S counted along it

Regarding `C[C@H]1CNC(=O)c2cnn3cc4c(nc23)N(Cc2cc(F)cnc2O1)[C@@H]1CCC[C@@H]1O4` [Compound I, (3aR,11S,20aS)-7-fluoro-11-methyl-2,3,3a,12,13,20a-hexahydro-1H,5H-17,19-(metheno)cyclopenta[5,6][1,4]oxazino[3,4-i]pyrazolo[4,3-f]pyrido[3,2-l][1,4,8,10]oxatriazacyclotridecin-14(11H)-one], the “IC75” value in assay [1] (Experiment 1) is 28.8 nM; in [1] (Experiment 2), 39.9 nM. Further, the IC90 amounted to 86.4 nM in assay [1] (Experiment 1) and 120 nM in [1] (Experiment 2). Also, the GI50 in [1] (Experiment 1) was 9.6 nM; in [1] (Experiment 2) it was 13.3 nM; in assay [2], 211 nM. The concentration for half-maximal inhibition (IC50) in [3] was 1 to 3 nM; in assay [4], 3 nM; in assay [5] it was < 0.5 nM; in assay [6], 131 nM; in [7], 0.2 nM; in assay [8], 0.5 nM. Further, the IC50 was 8.1 nM in [9]; 0.8 nM in [10]; > 1000 nM in assay [11]; 1.7 nM in assay [12]; 1 nM in [13]; 2.6 nM in [14].

For the origin of these results see US20220411439A1, “POLYMORPHS OF A MACROCYCLIC KINASE INHIBITOR” (TURNING POINT THERAPEUTICS, INC., priority 2019, published 2022).
